Test results taken from article PMC8365601, “Terphenyl-Based Small-Molecule Inhibitors of Programmed Cell Death-1/Programmed Death-Ligand 1 Protein–Protein Interaction” (Journal of Medicinal Chemistry, 2021).
Like-named read-outs stand apart in the source and are kept apart here.

Assays:
[1] = test system: Jurkat-ECs alone or with CHO wt or CHO/TCRAct cells; experiment: ICB assay control where PD-L1 is absent; type: cell-based; settings: 6 h; Figure S1
Protocol: The functional assay of the blockade of PD-1/PD-L1 interaction in vitro (PD-1/PD-L1 Blockade Bioassay, Promega) was performed according to the manufacturer’s protocol. CHO/TCRAct/PD-L1 cells or CHO/TCRAct or CHO-K1 cells were seeded on 96-well white plates at the density of 10,000 cells/well and the next day overlaid with Jurkat T cells (20,000 cells/well) in the presence of increasing concentrations of the compounds with DMSO only as a control (the concentration of DMSO was kept constant at 0.1%) or atezolizumab, as a positive control, anti-PD-L1 monoclonal antibody (Selleckchem). The 2.5-fold dilutions of atezolizumab were prepared in the assay buffer (RPMI 1640 + 1% FBS) on the day of the assay. Activation of the Jurkat T cells, reflected by luciferase activity, was monitored by luminescence measurements after 6 h of incubation (37 °C, 5% CO2), and 20 min of additional incubation with the Bio-Glo assay reagent (Promega) at room temperature. The luminescence was read on a Spark microplate reader (Tecan). The data are presented as fold induction of the luminescence signal relative to either untreated (for atezolizumab) or DMSO-treated (for compound) cells. Data points represent mean ± SD values from three to five independent experiments. Half-maximal effective concentrations (EC50 values) were calculated from the Hill curve fitting to the experimental data using Origin Pro 2020 software (OriginLab). […]
of the Immune Checkpoint Blockade (ICB) assay, where 8h, 8i, and 8j were used to restore the activation of effector Jurkat-ECs. Jurkat-ECs were either kept alone, or contacted with one of the following cell lines: wild type CHO K1 cells (CHO wt), CHO K1 cells expressing TCR Activator (CHO/TCRAct), or CHO K1 cells expressing TCR Activator and […]. The cells were incubated with the indicated concentrations of the compounds for 6 hours and luminescence was measured as an indicator of TCR-dependent activation of Jurkat-ECs. The graphs present fold induction of the luminescence signal relative to DMSO-treated cells. […]

PD-1/PD-L1 complex = PD-1/PD-L1 complex (Homo sapiens, UniProt Q9NZQ7); experiment: HTRF assay of PD-1/PD-L1 complex dissociation (CisBio); settings: for remaining activity at 0.005 µM: 2 h;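 as to all read-outs here: human PD-L1 at 5 nM with human PD-1 at 50 nM, TR-FRET signal read after 2 h at room temperature, background removed via negative control and scaled to positive control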
PD-1/PD-L1 complex, sequence (Q9NZQ7 19-238 limits assumed, one chain of several): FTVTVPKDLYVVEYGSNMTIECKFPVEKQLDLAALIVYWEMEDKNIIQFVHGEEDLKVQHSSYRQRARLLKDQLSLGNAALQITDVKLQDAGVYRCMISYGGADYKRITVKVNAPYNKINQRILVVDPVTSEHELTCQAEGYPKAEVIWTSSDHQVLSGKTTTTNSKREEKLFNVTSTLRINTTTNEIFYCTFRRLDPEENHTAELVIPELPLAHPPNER

PD-1/PD-L1 interaction = molecular target: T1, PD-1/PD-L1 interaction (Homo sapiens, UniProt Q9NZQ7); experiment: PD-1/PD-L1 ICB assay (Jurkat-ECs with CHO/TCRAct/PD-L1 cells, luciferase); type: cell-based
T1 construct: host or cells: CHO-K1 (CHO/TCRAct/PD-L1) and Jurkat effector cells
T1 sequence (Q9NZQ7 19-290): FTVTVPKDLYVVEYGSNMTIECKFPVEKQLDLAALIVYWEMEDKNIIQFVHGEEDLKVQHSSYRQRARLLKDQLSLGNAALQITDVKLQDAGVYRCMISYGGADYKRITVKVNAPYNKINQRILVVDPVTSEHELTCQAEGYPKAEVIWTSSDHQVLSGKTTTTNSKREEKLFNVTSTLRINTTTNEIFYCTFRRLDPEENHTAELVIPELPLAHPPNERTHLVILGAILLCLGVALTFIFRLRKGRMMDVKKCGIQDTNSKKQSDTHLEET
Protocol: After a successful optimization of the terphenyl compounds, the activity of the optimized molecules 7a and 8a–j in a cellular context was assessed. To this end, we first performed the PD-1/PD-L1 ICB assay. In this assay, T-cell receptor (TCR)-mediated activation of Jurkat effector cells (Jurkat-ECs) is reduced by the presence of PD-L1, exposed at the surface of CHO/TCRAct/PD-L1 cells (Figure 3A).
The functional assay of the blockade of PD-1/PD-L1 interaction in vitro (PD-1/PD-L1 Blockade Bioassay, Promega) was performed according to the manufacturer’s protocol. CHO/TCRAct/PD-L1 cells or CHO/TCRAct or CHO-K1 cells were seeded on 96-well white plates at the density of 10,000 cells/well and the next day overlaid with Jurkat T cells (20,000 cells/well) in the presence of increasing concentrations of the compounds with DMSO only as a control (the concentration of DMSO was kept constant at 0.1%) or atezolizumab, as a positive control, anti-PD-L1 monoclonal antibody (Selleckchem). The 2.5-fold dilutions of atezolizumab were prepared in the assay buffer (RPMI 1640 + 1% FBS) on the day of the assay. Activation of the Jurkat T cells, reflected by luciferase activity, was monitored by luminescence measurements after 6 h of incubation (37 °C, 5% CO2), and 20 min of additional incubation with the Bio-Glo assay reagent (Promega) at room temperature. The luminescence was read on a Spark microplate reader (Tecan). The data are presented as fold induction of the luminescence signal relative to either untreated (for atezolizumab) or DMSO-treated (for compound) cells. Data points represent mean ± SD values from three to five independent experiments. Half-maximal effective concentrations (EC50 values) were calculated from the Hill curve fitting to the experimental data using Origin Pro 2020 software (OriginLab).

remaining activity at 0.005 µM (PD-1/PD-L1 complex; read-out: % of undissociated complex at 5 nM): 0%
remaining activity at 0.005 µM (PD-1/PD-L1 complex; read-out: HTRF % of the undissociated complex at 5 nM): 0%
IC50 (PD-1/PD-L1 complex; HTRF, Table 4, <1.00 = limit of quantification reached): < 1 nM
EC50 (PD-1/PD-L1 interaction; Jurkat-ECs with CHO/TCRAct/PD-L1, 6 h, SI csv, read-out: Bioactivity (EC50 in the ICB assay)): 1030 ± 150 nM
EC50 (PD-1/PD-L1 interaction; read-out: EC50 in cell-based assays): ~1000 nM
SMILES: COc1cc(-c2cccc(-c3ccc4c(c3)OCCO4)c2Cl)ccc1CNC(CO)(CO)CO [8j, 2-(((3′-(Benzo-1,4-dioxan-6-yl)-2′-chloro-3-methoxy-[1,1′-biphenyl]-4-yl)methyl)amino)-2-(hydroxymethyl)propane-1,3-diol]
activation of Jurkat-ECs where PD-L1 is absent [1]: requires the presence of PD-L1
selectivity of PD-1/PD-L1-blocking activity versus cytotoxicity (PD-1/PD-L1 interaction; EC50 (tox.) vs EC50 (bio.), Figure 3F): highest selectivity
